Tests used:
[1] = system: late watergrass; assay: Test Example 1: herbicidal activity, application before weed generation under submerged conditions (Table 16, symbol A); assay type: in vivo, late watergrass (Echinochloa oryzicola)
Summary of the method: (§1)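 Alluvial soil was flooded to 4 cm depth, weed seeds were sown mixed and 2.5-leaf rice seedlings were transplanted. On sowing day, the compound's emulsion, diluted in water to a set dose, was applied to the water surface. Plants grew at 25–30 °C and were scored 0–5 after three weeks.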

[2] = system: Japanese bulrush; assay: Test Example 1: herbicidal activity, application before weed generation under submerged conditions (Table 16, symbol B); assay type: in vivo, Japanese bulrush (Schoenoplectus juncoides)
Summary of the method: as §1

[3] = system: oval-leafed pondweed; assay: Test Example 1: herbicidal activity, application before weed generation under submerged conditions (Table 16, symbol C); assay type: in vivo, oval-leafed pondweed (Monochoria vaginalis)
Summary of the method: as §1

[4] = system: barnyard grass; assay: Test Example 3: herbicidal effect by foliage application, Wagner pot (Table 18, symbol H); assay type: in vivo, barnyard grass (Echinochloa crus-galli)
Summary of the method: (§2)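 Plants were sown in alluvial soil held under 0.1–0.5 cm standing water and grown 14 days in a greenhouse at 25–30 °C. An emulsifiable formulation, water-diluted to the set dose, was then sprayed onto the foliage, and effects were scored three weeks later using previously defined criteria.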

[5] = system: Chinese sprangletop; assay: Test Example 3: herbicidal effect by foliage application, Wagner pot (Table 18, symbol D); assay type: in vivo, chinese sprangletop (Leptochloa chinensis)
Summary of the method: as §2

[6] = system: rice flat sedge; assay: Test Example 3: herbicidal effect by foliage application, Wagner pot (Table 18, symbol E); assay type: in vivo, rice flat sedge (Cyperus iria)
Summary of the method: as §2

[7] = system: southern crabgrass; assay: Test Example 4: herbicidal effect by soil treatment (Table 19, symbol F); assay type: in vivo, southern crabgrass (Digitaria ciliaris)
Summary of the method: (§3)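 Emulsion of test compound, water-diluted to predetermined amount, sprayed on soil after sowing (seed depth ~1.5 cm, sterilized diluvial soil). Greenhouse, 25–30° C. Effect graded at three weeks post-spray.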

[8] = system: green foxtail; assay: Test Example 4: herbicidal effect by soil treatment (Table 19, symbol G); assay type: in vivo, green foxtail (Setaria viridis)
Summary of the method: as §3

[9] = system: barnyard grass; assay: Test Example 4: herbicidal effect by soil treatment (Table 19, symbol H); assay type: in vivo, barnyard grass (Echinochloa crus-galli)
Summary of the method: as §3

[10] = system: wild oat; assay: Test Example 4: herbicidal effect by soil treatment (Table 19, symbol I); assay type: in vivo, wild oat (Avena fatua)
Summary of the method: as §3

[11] = system: blackgrass; assay: Test Example 4: herbicidal effect by soil treatment (Table 19, symbol J); assay type: in vivo, blackgrass (Alopecurus myosuroides)
Summary of the method: as §3

[12] = system: Italian ryegrass; assay: Test Example 4: herbicidal effect by soil treatment (Table 19, symbol K); assay type: in vivo, Italian ryegrass (Lolium multiflorum)
Summary of the method: as §3

[13] = system: windgrass; assay: Test Example 4: herbicidal effect by soil treatment (Table 19, symbol L); assay type: in vivo, windgrass (Apera spica-venti)
Summary of the method: as §3

[14] = system: velvetleaf; assay: Test Example 4: herbicidal effect by soil treatment (Table 19, symbol M); assay type: in vivo, velvetleaf (Abutilon theophrasti)
Summary of the method: as §3

[15] = system: redroot pigweed; assay: Test Example 4: herbicidal effect by soil treatment (Table 19, symbol N); assay type: in vivo, redroot pigweed (Amaranthus retroflexus)
Summary of the method: as §3

[16] = system: lambsquarters; assay: Test Example 4: herbicidal effect by soil treatment (Table 19, symbol O); assay type: in vivo, lambsquarters (Chenopodium album)
Summary of the method: as §3

[17] = system: chickweed; assay: Test Example 4: herbicidal effect by soil treatment (Table 19, symbol P); assay type: in vivo, common chickweed (Stellaria media)
Summary of the method: as §3

[18] = system: persian speedwell; assay: Test Example 4: herbicidal effect by soil treatment (Table 19, symbol R); assay type: in vivo, Persian speedwell (Veronica persica)
Summary of the method: as §3

[19] = system: southern crabgrass; assay: Test Example 5: herbicidal effect by foliage application, plastic box (Table 20, symbol F); assay type: in vivo, southern crabgrass (Digitaria ciliaris); conditions: foliage application, 3 weeks after application
Summary of the method: (§4)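 Post-emergence foliar test in sterilized diluvial soil. Compound applied as water-diluted emulsion at a predetermined rate to 14-day-old plants; evaluation at three weeks.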

[20] = system: green foxtail; assay: Test Example 5: herbicidal effect by foliage application, plastic box (Table 20, symbol G); assay type: in vivo, green foxtail (Setaria viridis); conditions: foliage application, 3 weeks after application
Summary of the method: as §4

[21] = system: barnyard grass; assay: Test Example 5: herbicidal effect by foliage application, plastic box (Table 20, symbol H); assay type: in vivo, barnyard grass (Echinochloa crus-galli); conditions: foliage application, 3 weeks after application
Summary of the method: as §4

[22] = system: wild oat; assay: Test Example 5: herbicidal effect by foliage application, plastic box (Table 20, symbol I); assay type: in vivo, wild oat (Avena fatua); conditions: foliage application, 3 weeks after application
Summary of the method: as §4

[23] = system: blackgrass; assay: Test Example 5: herbicidal effect by foliage application, plastic box (Table 20, symbol J); assay type: in vivo, blackgrass (Alopecurus myosuroides); conditions: foliage application, 3 weeks after application
Summary of the method: as §4

[24] = system: Italian ryegrass; assay: Test Example 5: herbicidal effect by foliage application, plastic box (Table 20, symbol K); assay type: in vivo, Italian ryegrass (Lolium multiflorum); conditions: foliage application, 3 weeks after application
Summary of the method: as §4

[25] = system: windgrass; assay: Test Example 5: herbicidal effect by foliage application, plastic box (Table 20, symbol L); assay type: in vivo, windgrass (Apera spica-venti); conditions: foliage application, 3 weeks after application
Summary of the method: as §4

[26] = system: velvetleaf; assay: Test Example 5: herbicidal effect by foliage application, plastic box (Table 20, symbol M); assay type: in vivo, velvetleaf (Abutilon theophrasti); conditions: foliage application, 3 weeks after application
Summary of the method: as §4

[27] = system: lambsquarters; assay: Test Example 5: herbicidal effect by foliage application, plastic box (Table 20, symbol O); assay type: in vivo, lambsquarters (Chenopodium album); conditions: foliage application, 3 weeks after application
Summary of the method: as §4

[28] = system: persian speedwell; assay: Test Example 5: herbicidal effect by foliage application, plastic box (Table 20, symbol R); assay type: in vivo, Persian speedwell (Veronica persica); conditions: foliage application, 3 weeks after application
Summary of the method: as §4

CC=CCOc1ccc(-c2sc3ccccc3c2-c2c(O)c(C)nn(C)c2=O)cc1 [1-211]
Herbicidal effect on A: late watergrass (grade 0-5) ([1]; 80 g/ha applied herbicide): 5 (Herbicidal rate of 90% or more (almost completely withered))
Herbicidal effect on B: Japanese bulrush (grade 0-5) ([2]; 80 g/ha applied herbicide): 3 (Herbicidal rate of 40% or more and less than 70%)
Herbicidal effect on C: oval-leafed pondweed (grade 0-5) ([3]; 80 g/ha applied herbicide): 3 (Herbicidal rate of 40% or more and less than 70%)
herbicidal effect on H (barnyard grass), rating 0-5 ([4]; 80 g/ha): 4 (Herbicidal rate of 70% or more and less than 90%)
herbicidal effect on D (Chinese sprangletop), rating 0-5 ([5]; 80 g/ha): 4 (Herbicidal rate of 70% or more and less than 90%)
herbicidal effect on E (rice flat sedge), rating 0-5 ([6]; 80 g/ha): 4 (Herbicidal rate of 70% or more and less than 90%)
F: southern crabgrass, herbicidal effect rating ([7]; AAH 80 g/ha): 0 (Herbicidal rate of 5% or less (almost no effect))
G: green foxtail, herbicidal effect rating ([8]; AAH 80 g/ha): 0 (Herbicidal rate of 5% or less (almost no effect))
H: barnyard grass, herbicidal effect rating ([9]; AAH 80 g/ha): 0 (Herbicidal rate of 5% or less (almost no effect))
I: wild oat, herbicidal effect rating ([10]; AAH 80 g/ha): 0 (Herbicidal rate of 5% or less (almost no effect))
J: blackgrass, herbicidal effect rating ([11]; AAH 80 g/ha): 0 (Herbicidal rate of 5% or less (almost no effect))
K: Italian ryegrass, herbicidal effect rating ([12]; AAH 80 g/ha): 0 (Herbicidal rate of 5% or less (almost no effect))
L: windgrass, herbicidal effect rating ([13]; AAH 80 g/ha): 0 (Herbicidal rate of 5% or less (almost no effect))
M: velvetleaf, herbicidal effect rating ([14]; AAH 80 g/ha): 0 (Herbicidal rate of 5% or less (almost no effect))
N: redroot pigweed, herbicidal effect rating ([15]; AAH 80 g/ha): 3 (Herbicidal rate of 40% or more and less than 70%)
O: lambsquarters, herbicidal effect rating ([16]; AAH 80 g/ha): 0 (Herbicidal rate of 5% or less (almost no effect))
P: chickweed, herbicidal effect rating ([17]; AAH 80 g/ha): 0 (Herbicidal rate of 5% or less (almost no effect))
R: persian speedwell, herbicidal effect rating ([18]; AAH 80 g/ha): 0 (Herbicidal rate of 5% or less (almost no effect))
effect on southern crabgrass (F) ([19]; 80 g/ha): 3 (Herbicidal rate of 40% or more and less than 70%)
effect on green foxtail (G) ([20]; 80 g/ha): 5 (Herbicidal rate of 90% or more (almost completely withered))
effect on barnyard grass (H) ([21]; 80 g/ha): 3 (Herbicidal rate of 40% or more and less than 70%)
effect on wild oat (I) ([22]; 80 g/ha): 0 (Herbicidal rate of 5% or less (almost no effect))
effect on blackgrass (J) ([23]; 80 g/ha): 2 (Herbicidal rate of 20% or more and less than 40%)
effect on Italian ryegrass (K) ([24]; 80 g/ha): 3 (Herbicidal rate of 40% or more and less than 70%)
effect on windgrass (L) ([25]; 80 g/ha): 0 (Herbicidal rate of 5% or less (almost no effect))
effect on velvetleaf (M) ([26]; 80 g/ha): 4 (Herbicidal rate of 70% or more and less than 90%)
effect on lambsquarters (O) ([27]; 80 g/ha): 5 (Herbicidal rate of 90% or more (almost completely withered))
effect on persian speedwell (R) ([28]; 80 g/ha): 5 (Herbicidal rate of 90% or more (almost completely withered))

Cc1nn(C)c(=O)c(-c2c(-c3ccc(F)cc3)sc3ccc(F)cc23)c1OC(=O)N1CCOCC1 [2-007]
Herbicidal effect on A: late watergrass (grade 0-5) ([1]; 320 g/ha applied herbicide): 2 (Herbicidal rate of 20% or more and less than 40%)
Herbicidal effect on B: Japanese bulrush (grade 0-5) ([2]; 320 g/ha applied herbicide): 0 (Herbicidal rate of 5% or less (almost no effect))
Herbicidal effect on C: oval-leafed pondweed (grade 0-5) ([3]; 320 g/ha applied herbicide): 0 (Herbicidal rate of 5% or less (almost no effect))
herbicidal effect on H (barnyard grass), rating 0-5 ([4]; 320 g/ha): 1 (Herbicidal rate of 5% or more and less than 20%)
herbicidal effect on D (Chinese sprangletop), rating 0-5 ([5]; 320 g/ha): 3 (Herbicidal rate of 40% or more and less than 70%)
herbicidal effect on E (rice flat sedge), rating 0-5 ([6]; 320 g/ha): 3 (Herbicidal rate of 40% or more and less than 70%)
herbicidal effect rating, F: southern crabgrass ([7]; 320 g/ha): 1 (Herbicidal rate of 5% or more and less than 20%)
herbicidal effect rating, G: green foxtail ([8]; 320 g/ha): 2 (Herbicidal rate of 20% or more and less than 40%)
herbicidal effect rating, H: barnyard grass ([9]; 320 g/ha): 0 (Herbicidal rate of 5% or less (almost no effect))
herbicidal effect rating, I: wild oat ([10]; 320 g/ha): 0 (Herbicidal rate of 5% or less (almost no effect))
herbicidal effect rating, J: blackgrass ([11]; 320 g/ha): 0 (Herbicidal rate of 5% or less (almost no effect))
herbicidal effect rating, K: Italian ryegrass ([12]; 320 g/ha): 0 (Herbicidal rate of 5% or less (almost no effect))
herbicidal effect rating, L: windgrass ([13]; 320 g/ha): 0 (Herbicidal rate of 5% or less (almost no effect))
herbicidal effect rating, M: velvetleaf ([14]; 320 g/ha): 0 (Herbicidal rate of 5% or less (almost no effect))
herbicidal effect rating, N: redroot pigweed ([15]; 320 g/ha): 2 (Herbicidal rate of 20% or more and less than 40%)
herbicidal effect rating, O: lambsquarters ([16]; 320 g/ha): 0 (Herbicidal rate of 5% or less (almost no effect))
herbicidal effect rating, P: chickweed ([17]; 320 g/ha): 0 (Herbicidal rate of 5% or less (almost no effect))
herbicidal effect rating, R: persian speedwell ([18]; 320 g/ha): 0 (Herbicidal rate of 5% or less (almost no effect))
effect on southern crabgrass (F) ([19]; 320 g/ha): 0 (Herbicidal rate of 5% or less (almost no effect))
effect on green foxtail (G) ([20]; 320 g/ha): 0 (Herbicidal rate of 5% or less (almost no effect))
effect on barnyard grass (H) ([21]; 320 g/ha): 0 (Herbicidal rate of 5% or less (almost no effect))
effect on wild oat (I) ([22]; 320 g/ha): 0 (Herbicidal rate of 5% or less (almost no effect))
effect on blackgrass (J) ([23]; 320 g/ha): 0 (Herbicidal rate of 5% or less (almost no effect))
effect on Italian ryegrass (K) ([24]; 320 g/ha): 0 (Herbicidal rate of 5% or less (almost no effect))
effect on windgrass (L) ([25]; 320 g/ha): 0 (Herbicidal rate of 5% or less (almost no effect))
effect on velvetleaf (M) ([26]; 320 g/ha): 0 (Herbicidal rate of 5% or less (almost no effect))
effect on lambsquarters (O) ([27]; 320 g/ha): 0 (Herbicidal rate of 5% or less (almost no effect))
effect on persian speedwell (R) ([28]; 320 g/ha): 1 (Herbicidal rate of 5% or more and less than 20%)

From patent publication US20230085307A1, “PYRIDAZINONE COMPOUND AND HERBICIDE” (NISSAN CHEMICAL CORPORATION, priority 2019, published 2023)
